Reference: patent US11596639B2, “Substituted indole Mcl-1 inhibitors” (Vanderbilt University, priority 2016, dated 2023)

Target: Mcl-1 (Homo sapiens (Human), UniProt Q07820)
Test: Fluorescence polarization anisotropy (FPA) competition assay, FITC-Bak or FITC-Bim BH3 peptide
Type: binding
Conditions: read-out: Ki for Inhibition of Mcl-1 by FPA assay

Chain of Mcl-1 (Q07820 172-327): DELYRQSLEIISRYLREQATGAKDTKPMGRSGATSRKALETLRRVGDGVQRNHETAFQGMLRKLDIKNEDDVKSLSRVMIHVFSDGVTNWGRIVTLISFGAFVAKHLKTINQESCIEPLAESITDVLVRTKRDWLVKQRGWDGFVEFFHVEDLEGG

Q: With Cc1cc(OCCCc2c3n(c4c(-c5c(C)nn(C)c5C)c(Cl)ccc24)[C@H](C)[C@@H](C)N(c2cc(C(=O)O)c4ccn(C)c4c2)C3=O)cc(C)c1Cl [Example 143, 6-((3R,4R)-7-chloro-10-(3-(4-chloro-3,5-dimethylphenoxy)propyl)-3,4-dimethyl-1-oxo-6-(1,3,5-trimethyl-1H-pyrazol-4-yl)-3,4-dihydropyrazino[1,2-a]indol-2(1H)-yl)-1-methyl-1H-indole-4-carboxylic acid] as the compound, how does the Ki read?
A: 7.6 nM

Q: Cc1cc(OCCCc2c(C(=O)N(C)c3cccc(C(=O)O)c3)n(CCN3CCOCC3)c3c(-c4c(C)nn(C)c4C)c(Cl)ccc23)cc(C)c1Cl [Example 730, 3-[[6-chloro-3-[3-(4-chloro-3,5-dimethyl-phenoxy)propyl]-1-(2-morpholinoethyl)-7-(1,3,5-trimethylpyrazol-4-yl)indole-2-carbonyl]-methyl-amino]benzoic acid] was tested. Which Ki did it give?
A: 20 nM

Q: For Cc1cc(OCCCc2c3n(c4c(-c5c(C)nn(C)c5C)c(Cl)ccc24)[C@H](C)CN(c2ccc4c(C(=O)O)nn(C)c4c2)C3=O)cc(C)c1Cl [Example 121, (R)-6-(7-Chloro-10-(3-(4-chloro-3,5-dimethylphenoxy)propyl)-4-methyl-1-oxo-6-(1,3,5-trimethyl-1H-pyrazol-4-yl)-3,4-dihydropyrazino[1,2-a]indol-2(1H)-yl)-1-methyl-1H-indazole-3-carboxylic acid], which Ki is on record?
A: 1.9 nM

Q: With Cc1cc(CCCCc2c(C(=O)N3CCN(c4ccc(C(=O)O)nc4)CC3)n(Cc3cccnc3)c3c(-c4c(C)nn(C)c4C)c(Cl)ccc23)cc(C)c1Cl [Example 737, 5-(4-(6-Chloro-3-(4-(4-chloro-3,5-dimethylphenyl)butyl)-1-(pyridin-3-ylmethyl)-7-(1,3,5-trimethyl-1H-pyrazol-4-yl)-1H-indole-2-carbonyl)piperazin-1-yl)picolinic acid] as the compound, how does the Ki read?
A: 140 nM

Q: Which Ki does the source give for Cc1cc(OCCCc2c3n(c4c(-c5c(C)ncnc5C)c(Cl)ccc24)[C@H](C)CN(c2cccc4cccc(C(=O)O)c24)C3=O)cc(C)c1Cl [Example 255, 8-[(4R)-7-chloro-10-[3-(4-chloro-3,5-dimethyl-phenoxy)propyl]-6-(4,6-dimethylpyrimidin-5-yl)-4-methyl-1-oxo-3,4-dihydropyrazino[1,2-a]indol-2-yl]naphthalene-1-carboxylic acid] here?
A: 1.3 nM

Q: With Cc1cc(OCCCc2c3n(c4c(-c5c(C)nn(C)c5C)c(Cl)ccc24)[C@H](C)CN(c2cn(C)c4ccc(C(F)(F)F)cc24)C3=O)cc(C)c1Cl (single isomer, unassigned) [Example 193] as the compound, how does the Ki read?
A: 3.9 nM

Q: Which Ki does the source give for COC(=O)c1cn(C)c2c(N3C[C@@H](C)n4c(c(CCCOc5cc(C)c(Cl)c(C)c5)c5ccc(Cl)c(-c6c(C)nn(C)c6C)c54)C3=O)cccc12 [Example 205, Methyl (R)-7-(7-chloro-10-(3-(4-chloro-3,5-dimethylphenoxy)propyl)-4-methyl-1-oxo-6-(1,3,5-trimethyl-1H-pyrazol-4-yl)-3,4-dihydropyrazino[1,2-a]indol-2(1H)-yl)-1-methyl-1H-indole-3-carboxylate] here?
A: 2.4 nM

Q: How did the Ki turn out when Cc1cc(OCCCc2c3n(c4c(-c5c(C)nn(C)c5C)c(Cl)ccc24)CCCN(Cc2cc(C(=O)O)cc(N4CCN(S(=O)(=O)CCc5ccccc5)CC4)n2)C3=O)cc(C)c1Cl [Example 38, 2-((8-Chloro-11-(3-(4-chloro-3,5-dimethylphenoxy)propyl)-1-oxo-7-(1,3,5-trimethyl-1H-pyrazol-4-yl)-4,5-dihydro-1H-[1,4]diazepino[1,2-a]indol-2(3H)-yl)methyl)-6-(4-(phenethylsulfonyl)piperazin-1-yl)isonicotinic acid] was run?
A: 62 nM

Q: COc1ccc(N2C[C@@H](C)n3c(c(CCCOc4cc(C)c(Cl)c(C)c4)c4ccc(Cl)c(-c5c(C)nn(C)c5C)c43)C2=O)c2c1c(C)c(C(N)=O)n2C [Example 411, (R)-7-(7-Chloro-10-(3-(4-chloro-3,5-dimethylphenoxy)propyl)-4-methyl-1-oxo-6-(1,3,5-trimethyl-1H-pyrazol-4-yl)-3,4-dihydropyrazino[1,2-a]indol-2(1H)-yl)-4-methoxy-1,3-dimethyl-1H-indole-2-carboxamide] was tested. Which Ki did it give?
A: 5.6 nM

Q: For Cc1cc(OCCCc2c(C(=O)N3CCN(c4cccc(C(=O)O)c4)CC3)n(Cc3cccnc3)c3c(-c4c(C)nn(C)c4C)c(Cl)ccc23)cc(C)c1Cl [Example 735, 3-(4-(6-chloro-3-(3-(4-chloro-3,5-dimethylphenoxy)propyl)-1-(pyridin-3-ylmethyl)-7-(1,3,5-trimethyl-1H-pyrazol-4-yl)-1H-indole-2-carbonyl)piperazin-1-yl)benzoic acid], which Ki is on record?
A: 52 nM

Q: Which Ki does the source give for Cc1cc(OCCCc2c3n(c4c(-c5c(C)nn(C)c5C)c(Cl)ccc24)[C@H](C)CN(c2ccc(F)c4cc[nH]c24)C3=O)cc(C)c1Cl [Example 446, (R)-7-Chloro-10-(3-(4-chloro-3,5-dimethylphenoxy)propyl)-2-(4-fluoro-1H-indol-7-yl)-4-methyl-6-(1,3,5-trimethyl-1H-pyrazol-4-yl)-3,4-dihydropyrazino[1,2-a]indol-1(2H)-one] here?
A: 8.2 nM

Q: Which Ki does the source give for Cc1cc(OCCCc2c3n(c4c(-c5c(C)nn(C)c5C)c(Cl)ccc24)CCCN(c2cccc4c(C#N)cn(C)c24)C3=O)cc(C)c1Cl [Example 6, 7-[8-Chloro-11-[3-(4-chloro-3,5-dimethyl-phenoxy)propyl]-1-oxo-7-(1,3,5-trimethylpyrazol-4-yl)-4,5-dihydro-3H-[1,4]diazepino[1,2-a]indol-2-yl]-1-methyl-indole-3-carbonitrile] here?
A: 54 nM

Q: How did the Ki turn out when Cc1cc(OCCCc2c3n(c4c(-c5c(C)nn(C)c5C)c(Cl)ccc24)CCCN(c2cc(C(=O)O)c4cn(CCN(C)C)nc4c2)C3=O)cc(C)c1Cl [Example 42, 6-[8-chloro-11-[3-(4-chloro-3,5-dimethyl-phenoxy)propyl]-1-oxo-7-(1,3,5-trimethylpyrazol-4-yl)-4,5-dihydro-3H-[1,4]diazepino[1,2-a]indol-2-yl]-2-[2-(dimethylamino)ethyl]indazole-4-carboxylic acid] was run?
A: 8 nM

Q: Cc1cc(OCCCc2c3n(c4c(-c5c(C)cccc5C)c(Cl)ccc24)CCCNC3=O)cc(C)c1Cl [Example 86, 8-Chloro-11-(3-(4-chloro-3,5-dimethylphenoxy)propyl)-7-(2,6-dimethylphenyl)-2,3,4,5-tetrahydro-1H-[1,4]diazepino[1,2-a]indol-1-one] was tested. Which Ki did it give?
A: 47 nM

Q: How did the Ki turn out when Cc1cc(OCCCc2c3n(c4c(-c5c(C)nn(C)c5C)c(Cl)ccc24)CCCN(Cc2cc(C(=O)O)cc(N4CCN(S(=O)(=O)C5CC5)CC4)n2)C3=O)cc(C)c1Cl [Example 47, 2-((8-Chloro-11-(3-(4-chloro-3,5-dimethylphenoxy)propyl)-1-oxo-7-(1,3,5-trimethyl-1H-pyrazol-4-yl)-4,5-dihydro-1H-[1,4]diazepino[1,2-a]indol-2(3H)-yl)methyl)-6-(4-(cyclopropylsulfonyl)piperazin-1-yl)isonicotinic acid] was run?
A: 19 nM

Q: For Cc1cc(OCCCc2c3n(c4c(-c5c(C)nn(C)c5C)c(Cl)ccc24)[C@H](C)CN(c2cn(C)c4ccc(-c5nnc(C6CCCCC6)o5)cc24)C3=O)cc(C)c1Cl [Example 413, (R)-7-Chloro-10-(3-(4-chloro-3,5-dimethylphenoxy)propyl)-2-(5-(5-cyclohexyl-1,3,4-oxadiazol-2-yl)-1-methyl-1H-indol-3-yl)-4-methyl-6-(1,3,5-trimethyl-1H-pyrazol-4-yl)-3,4-dihydropyrazino[1,2-a]indol-1(2H)-one], which Ki is on record?
A: 3.5 nM

Q: Cc1ccc(S(=O)(=O)N2CCN(c3cc(C(=O)O)cc(CN4CCCn5c(c(CCCOc6cc(C)c(Cl)c(C)c6)c6ccc(Cl)c(-c7c(C)nn(C)c7C)c65)C4=O)n3)CC2)o1 [Example 27, 2-((8-chloro-11-(3-(4-chloro-3,5-dimethylphenoxy)propyl)-1-oxo-7-(1,3,5-trimethyl-1H-pyrazol-4-yl)-4,5-dihydro-1H-[1,4]diazepino[1,2-a]indol-2(3H)-yl)methyl)-6-(4-((5-methylfuran-2-yl)sulfonyl)piperazin-1-yl)isonicotinic acid] was tested. Which Ki did it give?
A: 39 nM

Q: Which Ki does the source give for Cc1cc(OCCCc2c3n(c4c(-c5c(C)nn(C)c5C)c(Cl)ccc24)CCCN(Cc2cc(C(=O)O)cc(N4CCN(C(=O)N(C)C)CC4)n2)C3=O)cc(C)c1Cl [Example 34, 2-((8-Chloro-11-(3-(4-chloro-3,5-dimethylphenoxy)propyl)-1-oxo-7-(1,3,5-trimethyl-1H-pyrazol-4-yl)-4,5-dihydro-1H-[1,4]diazepino[1,2-a]indol-2(3H)-yl)methyl)-6-(4-(dimethylcarbamoyl)piperazin-1-yl)isonicotinic acid] here?
A: 12 nM

Q: Which Ki does the source give for Cc1cc(OCCCc2c3n(c4c(-c5c(C)nn(C)c5C)c(Cl)ccc24)CCCN(Cc2cc(C(=O)O)cc(N4CCN(C(=O)c5ccco5)CC4)n2)C3=O)cc(C)c1Cl [Example 9, 2-((8-Chloro-11-(3-(4-chloro-3,5-dimethylphenoxy)propyl)-1-oxo-7-(1,3,5-trimethyl-1H-pyrazol-4-yl)-4,5-dihydro-1H-[1,4]diazepino[1,2-a]indol-2(3H)-yl)methyl)-6-(4-(furan-2-carbonyl)piperazin-1-yl)isonicotinic acid] here?
A: 20 nM

Q: Which Ki does the source give for Cc1cc(OCCCc2c3n(c4c(-c5c(C)nn(C)c5C)c(Cl)ccc24)CCCN(c2cc(C(=O)O)cc4c2cnn4CCN(C)C)C3=O)cc(C)c1Cl [Example 40, 4-[8-Chloro-11-[3-(4-chloro-3,5-dimethyl-phenoxy)propyl]-1-oxo-7-(1,3,5-trimethylpyrazol-4-yl)-4,5-dihydro-3H-[1,4]diazepino[1,2-a]indol-2-yl]-1-[2-(dimethylamino)ethyl]indazole-6-carboxylic acid] here?
A: 3.9 nM

Q: How did the Ki turn out when CCn1ncc2c(C(=O)O)cc(N3C[C@@H](C)n4c(c(CCCOc5cc(C)c(Cl)c(C)c5)c5ccc(Cl)c(-c6c(C)nn(C)c6C)c54)C3=O)cc21 [Example 87, (R)-6-(7-chloro-10-(3-(4-chloro-3,5-dimethylphenoxy)propyl)-4-methyl-1-oxo-6-(1,3,5-trimethyl-1H-pyrazol-4-yl)-3,4-dihydropyrazino[1,2-a]indol-2(1H)-yl)-1-ethyl-1H-indazole-4-carboxylic acid] was run?
A: < 1 nM

Q: With Cc1cc(OCCCc2c(C(=O)NC3CCC(C(=O)O)CC3)[nH]c3c(-c4c(C)ncnc4C)c(Cl)ccc23)cc(C)c1Cl (single isomer, unassigned) [Example 746, 4-(6-Chloro-3-(3-(4-chloro-3,5-dimethylphenoxy)propyl)-7-(4,6-dimethylpyrimidin-5-yl)-1H-indole-2-carboxamido)cyclohexane-1-carboxylic acid] as the compound, how does the Ki read?
A: 5.2 nM
